Reference: patent US7267990B2, “Chelation of charged and uncharged molecules with porphyrin-based compounds” (priority 2002, dated 2007)

How the values were obtained:
[1] = tested on: healthy female Balb/c mice; conditions: mouse, in vivo
Source text: So far we have determined maximum tolerated doses for compounds 4, 6, 16, 31, and 33 using healthy female Balb/c mice.

[2] = tested on: V79 hamster fibroblast cells; assay: Clonogenic cytotoxicity assay in V79 cells; format: cell-based; conditions: concentrations up to 200 μM
Procedure: Human glioblastoma U373 MG, hamster V79 fibroblast, and mouse melanoma B16 cells were obtained from the American Type Culture Collection. Rat gliosarcoma cells were kindly provided by the University of California at San Francisco Brain Tumor Research Group. All cells were maintained in log phase monolayer cultures with RPMI 1640 supplemented with 10% fetal bovine serum and 2 mM glutamine. We have also determined the cytotoxicity of porphyrins 4, 16, 18, and 31 in V79 hamster fibroblast cells using a clonogenic assay. For each of these porphyrins, we found CS50>300 μM, and we observed no toxicity (i.e., no effect on colony survival) at concentrations up to 200 μM.

[3] = tested on: rat 9 L gliosarcoma cells; assay: Dark cytotoxicity assay, 9L cells; format: cell-based; conditions: 24 hour exposure, concentrations up to 250 μM, read-out: IC50 (dark toxicity, inhibition of proliferation)
Procedure: (§1) Human glioblastoma U373 MG, hamster V79 fibroblast, and mouse melanoma B16 cells were obtained from the American Type Culture Collection. Rat gliosarcoma cells were kindly provided by the University of California at San Francisco Brain Tumor Research Group. All cells were maintained in log phase monolayer cultures with RPMI 1640 supplemented with 10% fetal bovine serum and 2 mM glutamine.
(§2) Cells were seeded in 96-well culture plates, and were allowed to settle and attach for 24-48 hours. Triplicate wells were then exposed to twofold serial dilutions of test compounds at concentrations up to 250 μM. Compounds 4, 6, 10, and 12 in crystalline form were carefully weighed and dissolved in 100% DMSO to prepare stock solutions. Subsequent dilutions were performed directly in the culture medium just before the medium was administered to cells. After short-term (2 hour) or long-term (24 hour) exposure, cells were washed, and the wells were refilled with fresh culture medium. For dark toxicity trials, cells were allowed to proliferate for an additional 48-72 hours. For phototoxicity trials, washed cells were irradiated for 10 minutes with broad spectrum (600-700 nm) red light, and were then returned to an incubator for 48-72 hours.

[4] = tested on: human U-373MG glioblastoma cells; assay: Dark cytotoxicity assay, U-373 MG cells; format: cell-based; conditions: 24 hour exposure, concentrations up to 250 μM, read-out: IC50 (dark toxicity, inhibition of proliferation)
Procedure: as §1, §2

| Substance | maximum tolerated dose [1] | toxicity (effect on colony survival) [2] | IC50 [3] | IC50 [4] |
| --- | --- | --- | --- | --- |
| 5,15-bis[bis-3,5-(1-methyl-o-carboranyl)methylphenyl]porphyrin [Compound 33] | exceeded 300 mg per kg of body weight | – | – | – |
| Zn(II)-meso-tetra[4-(1-methyl-nido-carboranyl)methylphenyl]porphyrin tetrapotassium salt [Compound 6] | exceeded 300 mg per kg of body weight | – | – | – |
| Zn(II)-meso-tetra[4-(nido-carboranyl)phenyl]porphyrin tetrapotassium salt [Compound 18] | – | no toxicity | – | – |
| meso-tetra[3-(1-methyl-nido-carboranyl)methylphenyl]porphyrin tetrapotassium salt [Compound 10] | – | – | ~150 µM | ~150 µM |
| meso-tetra[4-(1-methyl-nido-carboranyl)methylphenyl]porphyrin tetrapotassium salt [Compound 4] | exceeded 300 mg per kg of body weight | no toxicity | ~150 µM | ~150 µM |
| meso-tetra[4-(nido-carboranyl)phenyl]porphyrin tetrapotassium salt [Compound 16] | exceeded 300 mg per kg of body weight | no toxicity | – | – |
